According to patent US7728012B2, “Carboxamide compounds and their use as calpain inhibitors” (Abbott GmbH & Co. KG, priority 2006, dated 2010):

Columns and labels:
Type in all cases: biochemical
[1] = biological target: T1, calpain-I isolated from human erythrocytes (Homo sapiens, UniProt P07384); assay: Calpain I kinetic fluorescence enzyme inhibition assay; conditions: apparent Ki from IC50 by Cheng-Prussoff; average of 2 to 4 dose-effect plots
T1 construct: calpain-I—isolated from human erythrocytes; purchased Calbiochem 208713; host or cells: human erythrocytes (tissue isolate)
T1 sequence (P07384 1-714): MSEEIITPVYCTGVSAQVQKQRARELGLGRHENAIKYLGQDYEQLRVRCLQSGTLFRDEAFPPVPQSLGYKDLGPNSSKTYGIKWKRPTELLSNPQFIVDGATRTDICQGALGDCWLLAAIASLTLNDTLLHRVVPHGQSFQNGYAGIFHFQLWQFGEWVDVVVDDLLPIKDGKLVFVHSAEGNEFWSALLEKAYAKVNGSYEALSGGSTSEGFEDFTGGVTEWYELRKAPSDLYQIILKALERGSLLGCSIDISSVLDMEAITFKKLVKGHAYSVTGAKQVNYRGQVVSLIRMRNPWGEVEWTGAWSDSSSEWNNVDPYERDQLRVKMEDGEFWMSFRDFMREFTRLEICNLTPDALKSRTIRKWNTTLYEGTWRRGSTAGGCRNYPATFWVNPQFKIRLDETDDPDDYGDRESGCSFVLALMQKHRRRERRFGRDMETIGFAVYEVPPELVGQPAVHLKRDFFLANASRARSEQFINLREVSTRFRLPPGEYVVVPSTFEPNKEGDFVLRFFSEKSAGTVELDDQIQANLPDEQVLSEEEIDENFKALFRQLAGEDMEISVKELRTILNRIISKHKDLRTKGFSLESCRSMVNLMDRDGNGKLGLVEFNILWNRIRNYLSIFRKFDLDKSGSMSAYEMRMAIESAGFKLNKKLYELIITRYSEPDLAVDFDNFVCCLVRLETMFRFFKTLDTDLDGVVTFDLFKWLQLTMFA
T1 sequence (P04632 1-268 partner): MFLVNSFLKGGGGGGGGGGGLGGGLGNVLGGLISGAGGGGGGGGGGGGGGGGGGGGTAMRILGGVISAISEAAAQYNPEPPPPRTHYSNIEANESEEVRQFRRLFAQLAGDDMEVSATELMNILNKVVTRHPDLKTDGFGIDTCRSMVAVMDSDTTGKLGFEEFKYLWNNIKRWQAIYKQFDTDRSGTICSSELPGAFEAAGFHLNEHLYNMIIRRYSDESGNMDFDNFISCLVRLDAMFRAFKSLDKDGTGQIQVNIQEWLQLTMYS

[2] = biological target: T2, cathepsin L isolated from human liver (Homo sapiens, UniProt P07711); assay: Cathepsin L kinetic fluorescence enzyme inhibition assay; conditions: selectivity ratio versus calpain I
T2 construct: cathepsin L—isolated from human liver; purchased Calbiochem 219402; host or cells: human liver (tissue isolate)
T2 sequence (P07711 114-333): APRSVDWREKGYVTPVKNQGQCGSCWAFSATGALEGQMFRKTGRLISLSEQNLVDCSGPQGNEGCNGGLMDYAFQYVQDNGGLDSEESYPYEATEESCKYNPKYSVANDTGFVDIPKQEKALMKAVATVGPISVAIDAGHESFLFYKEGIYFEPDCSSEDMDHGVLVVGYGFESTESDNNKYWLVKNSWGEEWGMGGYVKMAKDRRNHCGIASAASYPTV
In short: (§1)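 Inhibition is measured at room temperature in cysteine-containing MES buffer, pH 6.0, by continuous fluorescence at 460 nm. Cathepsin S (0.5 nM) uses 20 μM Z-Val-Val-Arg-AMC; L (1 nM) and B (0.25 nM) use Z-Phe-Arg-AMC at 2 and 100 μM respectively.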

[3] = biological target: T3, cathepsin K activated from recombinant human procathepsin K (Homo sapiens, UniProt P43235); assay: Cathepsin K kinetic fluorescence enzyme inhibition assay; conditions: selectivity ratio versus calpain I
T3 construct: purchased Calbiochem 342001; host or cells: E. coli
T3 sequence (P43235 115-329): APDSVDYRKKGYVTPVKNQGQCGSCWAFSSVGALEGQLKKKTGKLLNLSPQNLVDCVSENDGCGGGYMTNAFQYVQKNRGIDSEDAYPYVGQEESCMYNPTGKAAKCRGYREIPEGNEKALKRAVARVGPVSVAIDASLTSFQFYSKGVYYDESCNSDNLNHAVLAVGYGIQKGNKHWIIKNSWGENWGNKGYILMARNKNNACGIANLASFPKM

[4] = biological target: T4, recombinant human cathepsin S (Homo sapiens, UniProt P25774); assay: Cathepsin S kinetic fluorescence enzyme inhibition assay; conditions: selectivity ratio versus calpain I
T4 construct: purchased Calbiochem 219343; host or cells: E. coli
T4 sequence (P25774 115-331): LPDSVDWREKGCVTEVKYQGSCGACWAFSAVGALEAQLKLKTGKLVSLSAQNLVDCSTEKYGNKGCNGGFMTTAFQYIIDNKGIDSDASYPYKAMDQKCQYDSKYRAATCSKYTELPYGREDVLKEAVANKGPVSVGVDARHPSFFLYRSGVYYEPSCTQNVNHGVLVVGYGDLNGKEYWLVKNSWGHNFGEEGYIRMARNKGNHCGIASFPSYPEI
In short: as §1

[5] = biological target: T5, cathepsin B isolated from human liver (Homo sapiens, UniProt P07858); assay: Cathepsin B kinetic fluorescence enzyme inhibition assay; conditions: selectivity ratio versus calpain I
T5 construct: cathepsin B—isolated from human liver; purchased Calbiochem 219362; host or cells: human liver (tissue isolate)
In short: as §1

| SMILES | Ki [1] | Sel cat. L (Ki(cathepsin L)/Ki(calpain) ratio) [2] | Sel cat. K (Ki(cathepsin K)/Ki(calpain) ratio) [3] | Sel cat. S (Ki(cathepsin S)/Ki(calpain) ratio) [4] | Sel cat. B (Ki(cathepsin B)/Ki(calpain) ratio) [5] |
| --- | --- | --- | --- | --- | --- |
| NC(=O)C(=O)C(Cc1ccccc1)NC(=O)c1cccnc1-n1ccc(-c2ccc(Cl)s2)n1 (stereo not shown) [Example 103, N-[3-Amino-2,3-dioxo-1-(phenylmethyl)propyl]-2-[3-(5-chloro-2-thienyl)-1H-pyrazol-1-yl]pyridine-3-carboxamide] | ≤ 40 nM | ++ (Ki(cathepsin L)/Ki(calpain) ratio of ≧50) | + (10≦Ki(cathepsin K)/Ki(calpain)<30) | ++ (Ki(cathepsin S)/Ki(calpain) ratio of ≧100) | + (10≦Ki(cathepsin B)/Ki(calpain)<30) |
| NC(=O)C(=O)[C@H](Cc1ccccc1)NC(=O)c1cccnc1-n1ccc(-c2ccccc2)n1 [Example 107, N-[(1S)-3-Amino-2,3-dioxo-1-(phenylmethyl)propyl]-2-(3-phenyl-1H-pyrazol-1-yl)pyridine-3-carboxamide] | ≤ 40 nM | ++ (Ki(cathepsin L)/Ki(calpain) ratio of ≧50) | + (10≦Ki(cathepsin K)/Ki(calpain)<30) | ++ (Ki(cathepsin S)/Ki(calpain) ratio of ≧100) | + (10≦Ki(cathepsin B)/Ki(calpain)<30) |
| NC(=O)C(=O)C(Cc1ccccc1)NC(=O)c1cccnc1-n1ccc(-c2sccc2Cl)n1 (stereo not shown) [Example 109, N-[3-Amino-2,3-dioxo-1-(phenylmethyl)propyl]-2-[3-(3-chloro-2-thienyl)-1H-pyrazol-1-yl]pyridine-3-carboxamide] | ≤ 40 nM | ++ (Ki(cathepsin L)/Ki(calpain) ratio of ≧50) | ++ (Ki(cathepsin K)/Ki(calpain) ratio of ≧30) | ++ (Ki(cathepsin S)/Ki(calpain) ratio of ≧100) | ++ (Ki(cathepsin B)/Ki(calpain) ratio of ≧30) |
| NC(=O)C(=O)C(Cc1ccccc1)NC(=O)c1cccnc1-n1ccc(-c2cccc3ccccc23)n1 (stereo not shown) [Example 110, N-[3-Amino-2,3-dioxo-1-(phenylmethyl)propyl]-2-(3-naphthalen-1-yl-1H-pyrazol-1-yl)pyridine-3-carboxamide] | ≤ 40 nM | ++ (Ki(cathepsin L)/Ki(calpain) ratio of ≧50) | ++ (Ki(cathepsin K)/Ki(calpain) ratio of ≧30) | ++ (Ki(cathepsin S)/Ki(calpain) ratio of ≧100) | ++ (Ki(cathepsin B)/Ki(calpain) ratio of ≧30) |
| COc1ccc(CC(NC(=O)c2cccnc2-n2ccc(-c3ccc(F)cc3Cl)n2)C(=O)C(N)=O)cc1 (stereo not shown) [Example 111, N-(3-Amino-1-{[4-(methyloxy)phenyl]methyl}-2,3-dioxopropyl)-2-[3-(2-chloro-4-fluorophenyl)-1H-pyrazol-1-yl]pyridine-3-carboxamide] | ≤ 40 nM | ++ (Ki(cathepsin L)/Ki(calpain) ratio of ≧50) | ++ (Ki(cathepsin K)/Ki(calpain) ratio of ≧30) | ++ (Ki(cathepsin S)/Ki(calpain) ratio of ≧100) | ++ (Ki(cathepsin B)/Ki(calpain) ratio of ≧30) |
| NC(=O)C(=O)C(Cc1ccccc1)NC(=O)c1cccnc1-n1ccc(-c2cc(Cl)ccc2Cl)n1 (stereo not shown) [Example 112, N-[3-Amino-2,3-dioxo-1-(phenylmethyl)propyl]-2-[3-(2,5-dichlorophenyl)-1H-pyrazol-1-yl]pyridine-3-carboxamide] | ≤ 40 nM | ++ (Ki(cathepsin L)/Ki(calpain) ratio of ≧50) | ++ (Ki(cathepsin K)/Ki(calpain) ratio of ≧30) | ++ (Ki(cathepsin S)/Ki(calpain) ratio of ≧100) | ++ (Ki(cathepsin B)/Ki(calpain) ratio of ≧30) |
| NC(=O)C(=O)C(Cc1ccc(F)cc1)NC(=O)c1cccnc1-n1ccc(-c2ccc(Cl)cc2Cl)n1 (stereo not shown) [Example 114, N-{-3-Amino-1-[(4-fluorophenyl)methyl]-2,3-dioxopropyl}-2-[3-(2,4-dichlorophenyl)-1H-pyrazol-1-yl]pyridine-3-carboxamide] | 40 to 100 nM | ++ (Ki(cathepsin L)/Ki(calpain) ratio of ≧50) | ++ (Ki(cathepsin K)/Ki(calpain) ratio of ≧30) | ++ (Ki(cathepsin S)/Ki(calpain) ratio of ≧100) | ++ (Ki(cathepsin B)/Ki(calpain) ratio of ≧30) |
| NC(=O)C(=O)C(Cc1ccccc1)NC(=O)c1cccnc1-n1ccc(-c2cccc(Cl)c2Cl)n1 (stereo not shown) [Example 115, N-[3-Amino-2,3-dioxo-1-(phenylmethyl)propyl]-2-[3-(2,3-dichlorophenyl)-1H-pyrazol-1-yl]pyridine-3-carboxamide] | ≤ 40 nM | ++ (Ki(cathepsin L)/Ki(calpain) ratio of ≧50) | ++ (Ki(cathepsin K)/Ki(calpain) ratio of ≧30) | ++ (Ki(cathepsin S)/Ki(calpain) ratio of ≧100) | ++ (Ki(cathepsin B)/Ki(calpain) ratio of ≧30) |
| NC(=O)C(=O)C(Cc1ccccc1)NC(=O)c1cccnc1-n1ccc(-c2c(F)cc(F)cc2F)n1 (stereo not shown) [Example 116, N-[3-Amino-2,3-dioxo-1-(phenylmethyl)propyl]-2-[3-(2,4,6-trifluorophenyl)-1H-pyrazol-1-yl]pyridine-3-carboxamide] | ≤ 40 nM | ++ (Ki(cathepsin L)/Ki(calpain) ratio of ≧50) | + (10≦Ki(cathepsin K)/Ki(calpain)<30) | ++ (Ki(cathepsin S)/Ki(calpain) ratio of ≧100) | ++ (Ki(cathepsin B)/Ki(calpain) ratio of ≧30) |
| COc1ccc(-c2ccn(-c3ncccc3C(=O)NC(Cc3ccccc3)C(=O)C(N)=O)n2)c(OC)c1 (stereo not shown) [Example 117, N-[3-Amino-2,3-dioxo-1-(phenylmethyl)propyl]-2-{3-[2,4-bis(methyloxy)phenyl]-1H-pyrazol-1-yl}pyridine-3-carboxamide] | ≤ 40 nM | ++ (Ki(cathepsin L)/Ki(calpain) ratio of ≧50) | ++ (Ki(cathepsin K)/Ki(calpain) ratio of ≧30) | ++ (Ki(cathepsin S)/Ki(calpain) ratio of ≧100) | ++ (Ki(cathepsin B)/Ki(calpain) ratio of ≧30) |
| NC(=O)C(=O)C(Cc1ccccc1)NC(=O)c1cccnc1-n1ccc(-c2ccc3c(c2)OC(F)(F)O3)n1 (stereo not shown) [Example 118, N-[3-Amino-2,3-dioxo-1-(phenylmethyl)propyl]-2-[3-(2,2-difluoro-1,3-benzodioxol-5-yl)-1H-pyrazol-1-yl]pyridine-3-carboxamide] | ≤ 40 nM | ++ (Ki(cathepsin L)/Ki(calpain) ratio of ≧50) | + (10≦Ki(cathepsin K)/Ki(calpain)<30) | ++ (Ki(cathepsin S)/Ki(calpain) ratio of ≧100) | ++ (Ki(cathepsin B)/Ki(calpain) ratio of ≧30) |
